Values of other authors, collected in PubChem BioAssay AID1259409 (Chemical Carcinogenesis Research Information System (CCRIS), 2018).

Test system: rodent chemically induced tumor inhibition, incidence and multiplicity
Test: CCRIS tumor inhibitor studies

Structure (SMILES): O[C@@H](CS)[C@@H](O)CS
- tumour outcome (control, treated, inhibition, significance) (Carcinogen: TRANS-5-AMINO-3-[2-(5-NITRO-2-FURYL)VINYL]-1,2,4-OXADIAZOLE;SQL8506, 28754-68-9, Carcinogen: TRANS-5-AMINO-3-[2-(5-NITRO-2-FURYL)VINYL]-1,2,4-OXADIAZOLE;SQL8506, 28754-68-9, Dose [Inhibitor]: 100 MG/KG 16 HR BEFORE THE 1ST CARCINOGEN DOSE FOLLOWED BY ADDITIONAL INJECTIONS IMMEDIATELY BEFORE EACH DOSE OF CARCINO, Route [Inhibitor]: INTRAPERITONEAL, Species: MOUSE, Strain/Sex: CD-1/FEMALE, Target Tissue: Type of Lesion: HEMATOPOIETIC SYSTEM: MYELOID LEUKEMIA, Dose [Carcinogen]: 1 G/KG 2/D FOR 5 D EVERY 4 WK FOR 3 COURSES OF TREATMENT, Promoter: NONE USED): 7/137 (5%), 0/30 (0%), 100%, not calculated
- tumour outcome (control, treated, inhibition, significance) (Carcinogen: TRANS-5-AMINO-3-[2-(5-NITRO-2-FURYL)VINYL]-1,2,4-OXADIAZOLE;SQL8506, 28754-68-9, Carcinogen: TRANS-5-AMINO-3-[2-(5-NITRO-2-FURYL)VINYL]-1,2,4-OXADIAZOLE;SQL8506, 28754-68-9, Dose [Inhibitor]: 100 MG/KG 16 HR BEFORE THE 1ST CARCINOGEN DOSE FOLLOWED BY ADDITIONAL INJECTIONS IMMEDIATELY BEFORE EACH DOSE OF CARCINO, Route [Inhibitor]: INTRAPERITONEAL, Species: MOUSE, Strain/Sex: CD-1/FEMALE, Target Tissue: Type of Lesion: LYMPHOID TISSUE: NONTHYMIC LYMPHOMA, Dose [Carcinogen]: 1 G/KG 2/D FOR 5 D EVERY 4 WK FOR 3 COURSES OF TREATMENT, Promoter: NONE USED): 8/137 (6%), 2/30 (7%), -17%, not calculated
- tumour outcome (control, treated, inhibition, significance) (Carcinogen: TRANS-5-AMINO-3-[2-(5-NITRO-2-FURYL)VINYL]-1,2,4-OXADIAZOLE;SQL8506, 28754-68-9, Carcinogen: TRANS-5-AMINO-3-[2-(5-NITRO-2-FURYL)VINYL]-1,2,4-OXADIAZOLE;SQL8506, 28754-68-9, Dose [Inhibitor]: 100 MG/KG 16 HR BEFORE THE 1ST CARCINOGEN DOSE FOLLOWED BY ADDITIONAL INJECTIONS IMMEDIATELY BEFORE EACH DOSE OF CARCINO, Route [Inhibitor]: INTRAPERITONEAL, Species: MOUSE, Strain/Sex: CD-1/FEMALE, Target Tissue: Type of Lesion: LYMPHOID TISSUE: THYMIC LYMPHOMA, Dose [Carcinogen]: 1 G/KG 2/D FOR 5 D EVERY 4 WK FOR 3 COURSES OF TREATMENT, Promoter: NONE USED): 22/137 (16%), 4/30 (13%), 19%, not calculated
- tumour outcome (control, treated, inhibition, significance) (Carcinogen: TRANS-5-AMINO-3-[2-(5-NITRO-2-FURYL)VINYL]-1,2,4-OXADIAZOLE;SQL8506, 28754-68-9, Carcinogen: TRANS-5-AMINO-3-[2-(5-NITRO-2-FURYL)VINYL]-1,2,4-OXADIAZOLE;SQL8506, 28754-68-9, Dose [Inhibitor]: 100 MG/KG 16 HR BEFORE THE 1ST CARCINOGEN DOSE FOLLOWED BY ADDITIONAL INJECTIONS IMMEDIATELY BEFORE EACH DOSE OF CARCINO, Route [Inhibitor]: INTRAPERITONEAL, Species: MOUSE, Strain/Sex: CD-1/FEMALE, Target Tissue: Type of Lesion: STOMACH: SQUAMOUS CARCINOMA, Dose [Carcinogen]: 1 G/KG 2/D FOR 5 D EVERY 4 WK FOR 3 COURSES OF TREATMENT, Promoter: NONE USED): 60/137 (44%), 18/30 (60%), -36%, not calculated

Structure (SMILES): CC1=C(/C=C/C(C)=C/C=C/C(C)=C/C(=O)NCCCCO)C(C)(C)CCC1
- tumour outcome (control, treated, inhibition, significance) (Carcinogen: N-BUTYL-N-(4-HYDROXYBUTYL)NITROSAMINE, 3817-11-6, Dose [Inhibitor]: 1.5 MMOL/KG DIET DAILY FOR 133 D STARTING ONE WK AFTER THE FINAL CARCINOGEN DOSE (STUDY DURATION: 190 D), Route [Inhibitor]: ORAL, Species: MOUSE, Strain/Sex: BDF/MALE, Target Tissue: Type of Lesion: URINARY BLADDER: TRANSITIONAL CELL CARCINOMA, Dose [Carcinogen]: 7.5 MG 1/WK FOR 8 WK, Promoter: NONE USED): 21/100 (21%), 21/100 (21%), 0%, not significant
- tumour outcome (control, treated, inhibition, significance) (Carcinogen: N-BUTYL-N-(4-HYDROXYBUTYL)NITROSAMINE, 3817-11-6, Dose [Inhibitor]: 1.5 MMOL/KG IN DIET FOR 133 D STARTING 1 WK AFTER LAST CARCINOGEN DOSE (STUDY DURATION: 190 D), Route [Inhibitor]: ORAL, Species: MOUSE, Strain/Sex: DBF1/MALE, Target Tissue: Type of Lesion: URINARY BLADDER: TRANSITIONAL CELL CARCINOMA, Dose [Carcinogen]: 7.5 MG 1/WK FOR 8 WK, Promoter: NONE USED): 21/100 (21%), 21/100 (21%), 0%, not significant

Structure (SMILES): C=C(C)[C@@H]1CC=C2C(=CC[C@]3(C)[C@@H](C(CCC=C(C)C)C(=O)O)[C@H](O)C[C@@]23C)[C@@]1(C)CCC(=O)O (stereo not given in full)
- tumour outcome (control, treated, inhibition, significance) (Carcinogen: 7,12-DIMETHYLBENZ[A]ANTHRACENE, 57-97-6, Dose [Inhibitor]: 0, 0.2 UMOL 2/WK FOR 19 WK BEGINNING 1 WK POST CARCINOGEN DOSE (STUDY DURATION: 20 WK), Route [Inhibitor]: DERMAL, Species: MOUSE, Strain/Sex: ICR, Target Tissue: Type of Lesion: SKIN: PAPILLOMA, Dose [Carcinogen]: 50 UG ONCE, Promoter: 12-O-TETRADECANOYLPHORBOL-13-ACETATE, 16561-29-8): 73%, 32%, 56%, not calculated
- tumour outcome (control, treated, inhibition, significance) (Carcinogen: 7,12-DIMETHYLBENZ[A]ANTHRACENE, 57-97-6, Dose [Inhibitor]: 0, 0.2 UMOL IN 100 µL ACETONE:DMSO (9:1) 2/WK FOR 20 WK APPLIED 30 MIN PRIOR TO EACH CARCINOGEN DOSE (STUDY DURATION: 20, Route [Inhibitor]: DERMAL, Species: MOUSE, Strain/Sex: ICR/FEMALE, Target Tissue: Type of Lesion: SKIN: PAPILLOMA, Dose [Carcinogen]: 50 UG IN 100 µL ACETONE ONCE, Promoter: 12-O-TETRADECANOYLPHORBOL-13-ACETATE, 16561-29-8): 73%, 33%, 55%, p<0.05

Structure (SMILES): CC(C)(c1ccc(O)cc1)c1ccc(O)cc1
- outcome (Carcinogen: N-NITROSOBIS(2-HYDROXYPROPYL)AMINE, 53609-64-6, Dose [Inhibitor]: 0, 10000 PPM IN DIET FOR 27 WK BEGINNING 9 WK POST CARCINOGEN TREATMENT (STUDY DURATION: 37 WK), Route [Inhibitor]: ORAL, Species: RAT, Strain/Sex: F344/FEMALE, Target Tissue: Type of Lesion: THYROID GLAND: ADENOMA, Dose [Carcinogen]: 2000 MG/KG BW 1 WK POST BILATERAL OVARIECTOMY, Promoter: SULFADIMETHOXINE, 122-11-2): 0/12 (0%), 0/15 (0%), 0%, not significant
- tumour outcome (control, treated, inhibition, significance) (Carcinogen: N-NITROSOBIS(2-HYDROXYPROPYL)AMINE, 53609-64-6, Dose [Inhibitor]: 0, 10000 PPM IN DIET FOR 27 WK BEGINNING 9 WK POST CARCINOGEN TREATMENT (STUDY DURATION: 37 WK), Route [Inhibitor]: ORAL, Species: RAT, Strain/Sex: F344/FEMALE, Target Tissue: Type of Lesion: THYROID GLAND: CARCINOMA, Dose [Carcinogen]: 2000 MG/KG BW 1 WK POST BILATERAL OVARIECTOMY, Promoter: SULFADIMETHOXINE, 122-11-2): 10/12 (83%), 4/15 (27%), 67%, p<0.01
